This experiment deals with T1, P2X7 receptor (Homo sapiens, UniProt Q99572).
T1 construct: expressed in transfected cells; host or cells: HEK.293 cells, transient transfection with Lipofectamine LTX
T1 sequence (Q99572 1-595): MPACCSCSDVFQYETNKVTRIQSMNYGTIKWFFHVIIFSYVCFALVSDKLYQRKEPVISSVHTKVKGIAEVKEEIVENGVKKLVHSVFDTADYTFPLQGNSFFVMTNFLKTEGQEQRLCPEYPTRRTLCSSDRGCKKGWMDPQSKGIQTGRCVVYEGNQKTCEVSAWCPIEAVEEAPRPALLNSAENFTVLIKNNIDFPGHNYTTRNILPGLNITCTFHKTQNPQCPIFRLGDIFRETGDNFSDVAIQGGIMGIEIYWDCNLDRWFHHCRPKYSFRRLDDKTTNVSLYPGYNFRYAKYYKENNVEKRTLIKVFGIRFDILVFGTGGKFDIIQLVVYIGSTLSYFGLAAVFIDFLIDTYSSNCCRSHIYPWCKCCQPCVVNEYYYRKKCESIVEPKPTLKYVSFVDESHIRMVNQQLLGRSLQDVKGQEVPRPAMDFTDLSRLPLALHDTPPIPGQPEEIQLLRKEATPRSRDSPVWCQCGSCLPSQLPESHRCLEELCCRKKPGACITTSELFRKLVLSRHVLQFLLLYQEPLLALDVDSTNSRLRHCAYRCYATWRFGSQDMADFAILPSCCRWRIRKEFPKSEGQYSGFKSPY
Description: Pore-forming (Yo Pro-1 dye uptake) assay in P2X7 transfected HEK.293 cells, Bz-ATP agonist. The conditions noted are these: Bz-ATP 30 μM, Yo Pro-1 1 μM, triplicate. The experiment is classed as cell-based. The text has this: A non-radioactive analogue of the Imaging Agent illustrated in Table I was screened in a P2X7 receptor functional assay. This assay is described in Example 3 and is based upon the ability of the P2X7 receptor to form a non-selective pore in P2X7 transfected HEK.293 cells upon activation with an agonist, thereby allowing dye to permeate the cells. The non selective P2X channel antagonist used as a reference inhibitor for the evaluation of the non-radioactive compound of the invention was pyridoxal-phosphate-6-azophenyl-2′,4′-disulfonate (PPADS), and the results of the assay are provided in Table I above.
The assay method used was based on the ability of the DNA binding dye, Yo Pro-1 (quinolinium, 4[3-methyl-2(3H)-benzoxazolylidene)methyl]-1-[3-(trimethyl-ammonio)propyl]-dioxide) to enter through the dilated or “large pore form” of the P2X7 receptor and to bind to intracellular DNA/RNA whereupon it increases fluorescence intensity. Yo Pro-1 was therefore used to quantify inhibition of P2X7 function. This assay was based on the methods published by Michel et al., (B.J. Pharmacol 1998; 125: 1194-1201).
Initially, HEK.293 cells were transiently transfected using LipofectamineTMLTX (Invitrogen) for 72 hrs with P2X7 cDNA. 48 hours prior to use the cells were seeded into poly-D-lysine coated 96-well black-walled, clear bottomed plates, at a density of 30,000 cells/well. Stock solutions of test compound were prepared at a concentration of 40 mM in 100% DMSO.
Following the 48 hour incubation the culture medium was removed from the transfected cells, the cells were washed once and placed in pre-warmed sucrose assay buffer (Sucrose: 280 mM, KCL 5 mM, CaCl2: 0.5 mM, glucose: 10 mM, HEPES: 10 mM, N-methyl-D-glucamine: 10 mM; pH7.4). […] The fluorescence was then read at 485 nm excitation and 530 nm emission.
The non-selective P2X channel antagonist pyrdoxalphosphate-6-azophenyl-2′4′-disulphonic acid (PPADS) was used as a reference inhibitor in the assay. […] For each compound data set, a percentage inhibition value was calculated based on the three assay points generated.

By % inhibition is commonly meant how much of the control response was suppressed. High values mean a response far below the control, low ones a response near the control. Consider `Cc1nc(N=Nc2ccc(S(=O)(=O)O)cc2S(=O)(=O)O)c(COP(=O)(O)O)c(C=O)c1O` [PPADS, pyridoxal-phosphate-6-azophenyl-2′,4′-disulfonate, reference compound], for which the “% inhibition” value (test compound at 10 μM) came out at 70%.
With `Oc1ccccc1CNc1ncnn1-c1cccc(Cl)c1Cl` [imaging agent 1], the “% inhibition” value runs as follows: (test compound at 10 μM) 77.0%; (test compound at 100 μM (so in the source)) 68.0%.

The record behind these values is patent US20120034165A1, “IMAGING THE CENTRAL NERVOUS SYSTEM WITH PURINERGIC P2X7 RECEPTOR BINDING AGENTS” (priority 2009, published 2012).
